ChEMBL document CHEMBL1938249, “Synthesis, antimalarial activity, and structure-activity relationship of 7-(2-phenoxyethoxy)-4(1H)-quinolones” (J Med Chem, 2011)

Columns and labels:
[1] = system: Plasmodium falciparum; assay: Antimalarial activity against chloroquine-, pyrimethamine-resistant ring stage Plasmodium falciparum W2 infected in human A positive erythrocytes after 72 hrs by SYBR green 1-based fluorescence assay; format: functional, organism-based; details: W2, 72 h
[2] = system: Plasmodium falciparum; assay: Antimalarial activity against chloroquine-, mefloquine-, pyrimethamine-,atovaquone-resistant ring stage Plasmodium falciparum TM90-C2B infected in human A positive erythrocytes after 72 hrs by SYBR green 1-based fluorescence assay; format: functional, organism-based
[3] = system: Plasmodium falciparum; assay: Resistance ratio, ratio of EC50 for chloroquine-, mefloquine, pyrimethamine-,atovaquone-resistant ring stage Plasmodium falciparum TM90-C2B to EC50 for chloroquine-, pyrimethamine-resistant Plasmodium falciparum W2; format: functional
[4] = system: J774; assay: Antiproliferative against mouse J774 cells at < 20 uM after 72 hrs by Cell titer assay; format: cell-based; details: j774, 72 h
[5] = Cytotoxicity index, ratio of EC50 for mouse J774 cells to EC50 for chloroquine-, mefloquine, pyrimethamine-,atovaquone-resistant ring stage Plasmodium falciparum TM90-C2B; format: cell-based; details: read-out: Ratio EC50
[6] = system: J774; assay: Antiproliferative against mouse J774 cells after 72 hrs by Cell titer assay; format: cell-based; details: J774, 72 h

Row | SMILES | EC50 [1] | EC50 [2] | Ratio EC50 [3] | Activity [4] | selectivity ratio [5] | EC50 [6]
1 | CCc1c(C)[nH]c2cc(OCCN(C)C)c(Cl)cc2c1=O | 5050 nM | 604 nM | 0.12 | Non-toxic | ≥ 100 | 
2 | CCc1c(C)[nH]c2cc(OCCCN3CCN(c4ccccc4)CC3)c(Cl)cc2c1=O | 976 nM | 91.7 nM | 0.09 | Non-toxic | ≥ 100 | > 23000 nM
3 | CCCCc1cc2c(=O)c(-c3ccccc3)c(C)[nH]c2cc1OCCOc1ccccc1 | 1070 nM | 764 nM | 0.71 | Non-toxic | ≥ 100 | 23000 nM
4 | CCCCc1cc2c(=O)c(-c3ccncc3)c(C)[nH]c2cc1OCCOc1ccccc1 | 3150 nM | 1020 nM | 0.32 | Non-toxic | ≥ 100 | 23000 nM
5 | CCCCc1cc2c(=O)c(-c3cccnc3)c(C)[nH]c2cc1OCCOc1ccccc1 | 1350 nM | 588 nM | 0.44 | Non-toxic | ≥ 100 | 23000 nM
6 | CCCCc1cc2c(=O)c(-c3ccc(C(F)(F)F)cc3)c(C)[nH]c2cc1OCCOc1ccccc1 | 509 nM | 2450 nM | 4.82 | Non-toxic | ≥ 100 | 20000 nM
7 | CCCCc1cc2c(=O)c(-c3ccc(OC(F)(F)F)cc3)c(C)[nH]c2cc1OCCOc1ccccc1 | 3220 nM | 2510 nM | 0.78 | Non-toxic | ≥ 100 | 20000 nM
8 | CCCCc1cc2c(=O)c(-c3cccc(Oc4ccc(F)cc4)c3)c(C)[nH]c2cc1OCCOc1ccccc1 | 1390 nM | 1000 nM | 0.72 | Non-toxic | ≥ 100 | 19000 nM
9 | CCCCc1cc2c(=O)c(-c3ccc(COc4ccc(OC(F)(F)F)cc4)cc3)c(C)[nH]c2cc1OCCOc1ccccc1 | 4050 nM | 4050 nM | 1 | Non-toxic | ≥ 100 | 16000 nM
10 | CCCCc1cc2c(=O)c(-c3ccc(Oc4ccc(OC(F)(F)F)cc4)cc3C)c(C)[nH]c2cc1OCCOc1ccccc1 | 58.5 nM | 475 nM | 8.12 | Non-toxic | ≥ 100 | 16000 nM
11 | CCCCc1cc2c(=O)c(-c3ccc(C(F)(F)F)cc3C)c(C)[nH]c2cc1OCCOc1ccccc1 | 71.8 nM | 140 nM | 1.95 | Non-toxic | ≥ 100 | 20000 nM
12 | CCCCc1cc2c(=O)c(-c3ccc(C)cc3C)c(C)[nH]c2cc1OCCOc1ccccc1 | 907 nM | 1630 nM | 1.79 | Non-toxic | ≥ 100 | 22000 nM
13 | CCCCc1cc2c(=O)c(-c3ccc(Cl)cc3C)c(C)[nH]c2cc1OCCOc1ccccc1 | 68.7 nM | 542 nM | 7.89 | Non-toxic | ≥ 100 | > 21000 nM
14 | CCCCc1cc2c(=O)c(-c3c(C)noc3C)c(C)[nH]c2cc1OCCOc1ccccc1 | 27 nM | 128 nM | 4.73 | Non-toxic | ≥ 100 | 22000 nM
15 | O=C1C(O)=C([C@H]2CC[C@H](c3ccc(Cl)cc3)CC2)C(=O)c2ccccc21 [ATOVAQUONE] |  | > 170 nM |  |  |  | 
